Measured values from paper PMC9566605 (Cancer cell, 2022).

Experiments:
[1] = system: EG.7 cells; experiment: Viability and surface marker expression of treated EG.7 cells; format: cell-based, mouse
[2] = system: H-2K^b associated peptides of EG.7 cells; format: cell-based, mouse
[3] = molecular target: T1, H-2K^b (Mus musculus, UniProt P01901); experiment: RMA-S binding assay; settings: 2.5 mM PNT before peptide loading
[4] = molecular target: T1, H-2K^b; experiment: RMA-S dissociation assay; format: binding; settings: PNT before loading with peptides
[5] = system: proteasome; experiment: Proteasomal activity in tumor cell lysates; format: biochemical, mouse
[6] = system: catalytic subunits of proteasomes; experiment: Amount of catalytic subunits of proteasomes in EG7 tumor cells; format: cell-based, mouse; settings: EG7 tumor cells treated with PNT or bortezomib
[7] = system: EL4 cells; experiment: Empty MHC class I detection by […] loading of EL4 cells; format: cell-based, mouse; settings: EL4 cells treated with PNT, n=4
[8] = system: EL4 tumor cells; settings: pre-treatment of tumor cells with PNT; 5:1 ratio, annexin V/DAPI, 5 and 16 hours
[9] = system: human melanoma UACC903 cell line; experiment: SILAC LC-MS/MS of HLA-A, -B, -C bound peptides after PNT; settings: UACC903 cells
[10] = molecular target: T2, H-2D^b (Mus musculus, UniProt P01899); experiment: RMA-S dissociation assay, H-2D^b; format: binding
T2 sequence (P01899 25-362): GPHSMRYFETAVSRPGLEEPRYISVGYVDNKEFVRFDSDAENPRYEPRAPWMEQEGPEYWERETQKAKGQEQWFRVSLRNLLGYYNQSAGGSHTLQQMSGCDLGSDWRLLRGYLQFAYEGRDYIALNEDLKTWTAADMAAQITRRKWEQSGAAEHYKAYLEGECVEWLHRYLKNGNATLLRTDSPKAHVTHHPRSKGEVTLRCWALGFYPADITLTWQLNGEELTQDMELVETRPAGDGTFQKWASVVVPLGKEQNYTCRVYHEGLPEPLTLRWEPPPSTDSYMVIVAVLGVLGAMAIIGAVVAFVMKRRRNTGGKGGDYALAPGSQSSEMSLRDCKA
T2 sequence (P01887 21-119 partner): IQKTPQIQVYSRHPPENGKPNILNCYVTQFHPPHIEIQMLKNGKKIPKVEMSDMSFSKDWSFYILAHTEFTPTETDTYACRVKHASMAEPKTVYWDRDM

[11] = system: B16F10-iNOS cells; experiment: CTL assay of Pmel-1 cells against mixed B16F10-control and B16F10-iNOS cells; format: cell-based, mouse; settings: B16F10-control and B16F10-iNOS mixed 1:1, activated Pmel-1 cells, pre-treated with RTA408
[12] = system: nitrotyrosine (NT) in LLC tumor tissue; experiment: Immunofluorescent NT staining of LLC tumor tissue; format: in vivo, mouse; settings: LLC tumor-bearing mice treated with RTA408

T1 sequence (P01901 whole entry, looked up): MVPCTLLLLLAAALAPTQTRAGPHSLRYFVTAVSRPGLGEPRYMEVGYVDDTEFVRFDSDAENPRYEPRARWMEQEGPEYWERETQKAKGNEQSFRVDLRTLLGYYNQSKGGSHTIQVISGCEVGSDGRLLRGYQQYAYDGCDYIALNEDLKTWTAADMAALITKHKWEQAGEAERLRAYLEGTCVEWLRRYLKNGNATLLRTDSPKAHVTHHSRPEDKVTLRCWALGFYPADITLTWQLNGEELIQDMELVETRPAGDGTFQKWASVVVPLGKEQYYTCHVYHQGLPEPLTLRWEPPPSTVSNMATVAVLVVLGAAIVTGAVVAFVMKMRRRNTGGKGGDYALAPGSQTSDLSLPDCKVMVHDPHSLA

With `O=NOO` [PNT, peroxynitrite] the “NT (nitrotyrosine) expression” value ([1]; 2.5 mM PNT) was “substantial up-regulation”, the cell viability ([1]; 2.5 mM PNT) was “did not affect” and the “expression of MHCI H-2K^b molecules” value ([1]; 2.5 mM PNT) was “did not affect”. For the same compound, the “recovery of H-2K^b peptide profile” value ([2]; 2.5 mM PNT on ice 5 min, 16 h after the treatment) was “returned to the pre-treatment level”, the “change in H-2K^b peptide profile” value ([2]; 2.5 mM PNT on ice 5 min, right after the treatment (0 min)) was “no substantial changes” and the “effect of PNT pre-treatment of RMA-S cells on binding of the peptides” value [3] was “only a small decrease”. The “effect of PNT treatment of RMA-S cells on dissociation rates” value [4] was “no detectable effect”, the “effect on proteasomal activity in IFN-γ pre-treated vs non-pre-treated cells” value ([5]; EG7 and LLC cells, 100 ng/ml IFN-γ 24 hours, then PNT) was “the same” and the “recovery of proteasomal activity over time” value ([5]; EG.7 cells, 2.5 mM PNT, chymotrypsin, trypsin and caspase-like activities) was “almost completely restored by 22 hours”. For the same compound, the “proteasome types and activities affected” value ([5]; EL4 and LLC cell lines, 2.5 mM PNT 5 min on ice, proteasome-specific fluorogenic substrates) was “affected mostly chymotrypsin- and trypsin-like activities associated with constitutive proteasomes”, the proteasomal activity ([5]; tumor cells treated with 2.5 mM PNT for 5 min, n=3) was “profound decrease” and the “amount of 6 catalytic subunits of proteasomes” value [6] was “did not affect”. For the same compound, the “total H-2Kb expression, PNT-treated vs control cells” value [7] was “no differences”, the “killing of tumor cells by CTLs generated against PNT-resistant peptides” value [8] was “did not affect killing” and the “change in HLA-A, -B, -C bound peptide profile” value [9] was “substantially changed the peptide profile”.
With EGSRNQDWL the “dissociation from H-2D^b” value [10] was “dissociated significantly faster”.
In the case of `CC(C)C[C@H](NC(=O)[C@H](Cc1ccccc1)NC(=O)c1cnccn1)B(O)O` [bortezomib], the “expression of MHC class I (H2K^b)” value ([1]; 15 nM bortezomib) is reported as “did not affect”, the “viability of tumor cells” value ([1]; 15 nM bortezomib) is reported as “did not affect” and the “representation of MHCI peptides vs non-treated cells” value ([2]; EG.7 cells, 15 nM bortezomib) is reported as “substantial decrease”. The proteasomal activity ([5]; EG.7 cells, 15 nM bortezomib, N=5) was “modest inhibition” and the “amount of 6 catalytic subunits of proteasomes” value [6] was “did not affect”.
For `CC1(C)CC[C@]2(NC(=O)C(C)(F)F)CC[C@]3(C)[C@H](C(=O)C=C4[C@@]5(C)C=C(C#N)C(=O)C(C)(C)[C@@H]5CC[C@]43C)[C@@H]2C1` [RTA408, Omaveloxolone], the “resistance of B16F10-iNOS cells to killing by CTLs” value [11] was “completely abrogated resistance” and the “NT staining in tumor tissues” value [12] was “reduced NT staining”.
